Measurements as given in patent US20240293413A1, “COMPOUND AND METHOD FOR TREATING CHEMOTHERAPY-RELATED GASTROINTESTINAL SIDE EFFECTS” (ONQUALITY PHARMACEUTICALS CHINA LTD., priority 2021, published 2024).

Tests used:
Format in all cases: in vivo
[1] = system: Chemotherapeutic agent-caused constipation models of Balb/c mice; experiment: Examples 272-342 (Table 5): oral CDK inhibitor, relief of constipation caused by a chemotherapeutic agent; details: cycle 8 days;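 further: percent of treated mice relieved versus chemotherapy group by feces reduction rate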
Excerpt: Construction of mouse animal models: Chemotherapeutic agent-caused constipation models of Balb/c mice were constructed according to the administration mode and frequency of the chemotherapeutic agent as shown in Table 5.
(§1) Balb/c mice were fed for 1 week, and then divided into groups. The experiment was divided into a control group, a chemotherapeutic agent group, and a CDK inhibitor group, each of which comprised 10 mice, to perform the administration experiment, for which the administration dosage, mode, time and frequency were shown in Table 5. The control group: being intragastrically administered with the same solvent as that used in the CDK inhibitor group (the time was shown in Table 5), and then being injected/intragastrically administered with the same solvent as that used in the chemotherapeutic agent group (the administration mode was shown in Table 5): the chemotherapeutic agent group: being intragastrically administered with the same solvent as that used in the CDK inhibitor group (the time was shown in […]), and then being injected/intragastrically administered with the chemotherapeutic agent (the type, administration mode and dosage were shown in Table 5): the CDK inhibitor group: being intragastrically administered with the CDK inhibitor (the time was shown in Table 5), and then being administered with the chemotherapeutic agent (the mode and dosage were shown in Table 5).
(§2) Feces reduction rate (%)=(the control group−the chemotherapeutic agent group or the CDK inhibitor group)/the control group*100%
(§3) The feces amount of mice within 3 hours was observed and recorded every day.

[2] = system: constipation caused by a chemotherapeutic agent in Balb/c mice; experiment: Examples 406-443 (Table 8): various administration modes of the CDK inhibitor, relief of constipation caused by a chemotherapeutic agent; details: for Relative remission rate of other administration mode / Relative remission rate of oral administration: cycle 8 days; for improvement of constipation by oral administration, intraperitoneal injection, intramuscular injection, local administration: constipation caused by doxorubicin, etoposide, etoposide plus cisplatin, carboplatin, gemcitabine, gemcitabine plus carboplatin, under certain conditions, oral most significant;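 on Relative remission rate of oral administration: percent of treated mice relieved versus chemotherapy group by feces reduction rate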;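 on Relative remission rate of other administration mode: percent of treated mice relieved versus chemotherapy group by feces reduction rate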
Excerpt: Balb/c mice were fed for 1 week, and then divided into groups. The experiment was divided into a control group, a chemotherapeutic agent group, CDK inhibitor groups (including an oral administration group of a CDK inhibitor, an intravenous injection group of a CDK inhibitor, an intraperitoneal injection group of a CDK inhibitor, an intramuscular injection group of a CDK inhibitor, a local administration group of a CDK inhibitor), each of which comprised 10 mice, to perform the administration experiment, for which the administration dosage, mode, time and frequency were shown in Table 8. The control group: being administered with the same solvent as that used in the CDK inhibitor group (the time and mode were shown in Table 8), and then being injected/intragastrically administered with the same solvent as that used in the chemotherapeutic agent group (the administration mode was shown in Table 8): the chemotherapeutic agent group: being administered with the same solvent as that used in the CDK inhibitor group (the time and mode were shown in Table 8), and then being injected/intragastrically administered with the chemotherapeutic agent (the type, administration mode and dosage were shown in Table 8): the oral administration group of the CDK inhibitor: being intragastrically administered with the CDK inhibitor (the time was shown in Table 8), and then being administered with the chemotherapeutic agent (the mode and dosage were shown in Table 8): the intravenous injection group of the CDK inhibitor: being injected with the CDK inhibitor through tail vein (the time was shown in Table 8), and then being administered with the chemotherapeutic agent (the mode and dosage were shown in Table 8): the intraperitoneal injection group of the CDK inhibitor: being intraperitoneally injected with the CDK inhibitor (the time was shown in Table 8), and then being administered with the chemotherapeutic agent (the mode and dosage were shown in Table 8): the intramuscular injection group of the CDK inhibitor: being intramuscularly injected with the CDK inhibitor (the time was shown in Table 8), and then being administered with the chemotherapeutic agent (the mode and dosage were shown in Table 8); and the local administration group of the CDK inhibitor: the hair on the abdomen of mice was shaved (about 2 cm*2 cm), being applied with the CDK inhibitor (the time was shown in Table 8), and then being administered with the chemotherapeutic agent (the mode and dosage were shown in Table 8).
as §2, §3

[3] = system: Chemotherapeutic agent-caused diarrhea models of Balb/c mice; experiment: Examples 1-229 (Table 3): oral CDK inhibitor, relief of diarrhea caused by a chemotherapeutic agent;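 further: percent of treated mice whose diarrhea grade fell below chemotherapy-group average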
Excerpt: Construction of mouse animal models: Chemotherapeutic agent-caused diarrhea models of Balb/c mice were constructed according to the administration mode and frequency of the chemotherapeutic agent as shown in Table 3.
as §1, with “in Table 3. The control” for “in Table 5. The control”, “in Table 3), and then” for “in Table 5), and then”, “in Table 3): the chemotherapeutic” for “in Table 5): the chemotherapeutic”, “in Table 3); the CDK” for “in Table 5): the CDK”, “in Table 3).” for “in Table 5).”
The diarrhea grading of mice was observed and recorded every day.

| Compound | Relative remission rate ([1]; Example 321, Docetaxel (DTX) oral administration 30 mg/kg single, CDK inhibitor oral 400 mg/kg single, 3 h before) [%] | Relative remission rate of other administration mode ([2]; Example 442, Gemcitabine and Carboplatin oral administration 300 (G) 200 (C) mg/kg single, CDK inhibitor local administration 400 mg/kg single, 4 h before) [%] | Relative remission rate of oral administration ([2]; Example 442, Gemcitabine and Carboplatin oral administration 300 (G) 200 (C) mg/kg single, CDK inhibitor oral 400 mg/kg single, 4 h before) [%] | Relative remission rate of other administration mode ([2]; Example 443, Gemcitabine and Carboplatin oral administration 300 (G) 200 (C) mg/kg single, CDK inhibitor local administration 400 mg/kg single, 8 h before) [%] | Relative remission rate of oral administration ([2]; Example 443, Gemcitabine and Carboplatin oral administration 300 (G) 200 (C) mg/kg single, CDK inhibitor oral 400 mg/kg single, 8 h before) [%] | improvement of constipation by oral administration, intraperitoneal injection, intramuscular injection, local administration [2] | Relative remission rate (%) ([3]; Example 46, Fluorouracil (5-Fu) intravenous injection 175 mg/kg single, CDK inhibitor oral 250 mg/kg single 2 h before, cycle 10 days) | Relative remission rate (%) ([3]; Example 118, Irinotecan (CPT-11) intraperitoneal injection 240 mg/kg single, CDK inhibitor oral 250 mg/kg single 6 h before, cycle 7 days) | Relative remission rate (%) ([3]; Example 195, Gemcitabine 60 mg/kg and paclitaxel 10 mg/kg intravenous injection single, CDK inhibitor oral 400 mg/kg single, 0.5 h before, 8 days) | Relative remission rate (%) ([3]; Example 199, Gemcitabine 60 mg/kg and paclitaxel 10 mg/kg intravenous injection single, CDK inhibitor oral 250 mg/kg single, 2 h before, 8 days) | Relative remission rate (%) ([3]; Example 200, Gemcitabine 60 mg/kg and paclitaxel 10 mg/kg intraperitoneal injection single, CDK inhibitor oral 250 mg/kg single, 6 h before, 8 days) | Relative remission rate ([1]; Example 322, Docetaxel (DTX) intramuscular injection 20 mg/kg single, CDK inhibitor oral 1 mg/kg single, 5 h before) [%] | Relative remission rate of other administration mode ([2]; Example 420, Etoposide (Etop1) intravenous injection 100 mg/kg single, CDK inhibitor intraperitoneal injection 100 mg/kg single, 1 h before) [%] | Relative remission rate of oral administration ([2]; Example 420, Etoposide (Etop1) intravenous injection 100 mg/kg single, CDK inhibitor oral 1 mg/kg single, 1 h before) [%] | Relative remission rate (%) ([3]; Example 73, Oxaliplatin intraperitoneal injection 20 mg/kg single, CDK inhibitor oral 10 mg/kg single 6 h before, cycle 8 days) | Relative remission rate (%) ([3]; Example 117, Irinotecan (CPT-11) intraperitoneal injection 240 mg/kg single, CDK inhibitor oral 10 mg/kg single 6 h before, cycle 7 days) |
| --- | --- | --- | --- | --- | --- | --- | --- | --- | --- | --- | --- | --- | --- | --- | --- | --- |
| CC[C@H](CO)Nc1nc(NCc2ccccc2)c2ncn(C(C)C)c2n1 [Seliciclib] | 20 | 10 | 20 | 10 | 20 | can significantly improve constipation | 30 | 30 | 30 | 20 | 40 |  |  |  |  |  |
| Roniciclib |  |  |  |  |  | can significantly improve constipation |  |  |  |  |  | 10 | 10 | 20 | 30 | 20 |
